Series [1] deals with MSSA 1. The series is described as follows: MIC determination (LB agar dilution), clinical MSSA strain 1. Type of series: cell-based. The following applies: Staphylococcus aureus, at least two replicates. The method, then:
(§1) All of the tested compounds were prepared to different concentrations with methanol, and 150 μL of the respective methanol solution was used to mix with 15 mL LB (Luria–Bertani) medium with 1% agar in each Petri dish. Linezolid and PTM were used as reference compounds for comparison. In vitro bioassay for compounds was carried out using clinical strains of S. aureus, E. coli, and Klebsilla pneumoniae. The bacteria were cultivated in LB medium and incubated for 16 h at 37 °C, 250 rpm. The resulting bacteria were diluted to approximate 0.25 at OD600, which were further diluted 10_4-fold. The diluted bacteria (2 μL) were added to Petri dish containing the respective compounds. The resulting Petri dishes were incubated for 16 h at 37 °C. The determination of MIC is the concentration of Petri dishes with no visible growth of bacteria.

Series [2] relates to MRSA 4. In words: MIC determination (LB agar dilution), clinical MRSA strain 4. The following applies: Staphylococcus aureus, at least two replicates. Type of series: cell-based. As for the experimental part:
as §1

The subject of series [3] is MRSA. Type of series: in vivo. The following applies: for survival rate of the infected mice: 7 days; for survival of infected mice: tracked 7 days; for survival of infected mice / mice died within 24 h: n = 5.
Series [4] relates to MRSA. In words: Mouse skin infection with MRSA. Type of series: in vivo, BABL/c mice. The following applies: for load of S. aureus on treated skin: n = 5/group; for healing of the infected skin: topical twice a day for 7 days, observation and H&E staining. The method, then:
Mouse MRSA skin infection study was performed as described before. Female BABL/c mice (20–22 g, 7-weeks old) were anesthetized by intraperitoneal injection of 4% chloral hydrate (200 μL), and the hair of mice back surface was removed and washed with povidone iodine–propanol solution. A gauze (15 × 15 mm) was preheated in boiling water (90 °C) for 10 min, and then placed on the back of each mouse for 40 s to generate the burns. Next, the burn was bound with sterile gauze and infected with 1 × 10^8 colony-forming units (CFU) of MRSA. An open wound was witnessed at the burns after 48 h post infection. The infected mice were then divided into three groups (5 per group). A4 (200 μg) was formulated into 2% ointment consisting of 1.4% carbomer, 1.4% triethanolamine, 14% propanediol, 14% glycerinum, and 1% azone. Mupirocin (2% w/w) were used as the positive control, while vehicle used as negative control. All mice were treated twice a day for 7 days. Mice were euthanized after 24 h of the last treatment, and the wound area was slightly swabbed with 70% ethanol. Wound area (1 cm^2) was excised, homogenized, and plated onto TSB agar plates to count viable bacteria. Other skin biopsy specimens removed from the wounds were stored at 4% paraformaldehyde solution to be used for hematoxylin and eosin (HE) staining.

Series [5] concerns MSSA 2. In words: MIC determination (LB agar dilution), clinical MSSA strain 2. The series is classed as cell-based. The following applies: Staphylococcus aureus, at least two replicates. The method, then:
as §1

Series [6] is described as follows: Plasma protein binding by equilibrium dialysis. The series is classed as in vitro ADME. The following applies: 37 °C; for Plasma Protein Binding Bound %: 5 μM, 6 h; for fraction unbound at 6 h, 5 μM: plasma, read-out: Plasma Protein Binding Free %. The method, then:
Equilibrium dialysis was used to determine the plasma protein binding. All of the test compounds were treated in triplicate by RED Rapid Equilibrium Dialysis Device (Thermo Scientific, Waltham, MA, USA). In brief, the initial compound concentration (5 μM) in the plasma chamber was first set, followed by the addition of phosphate buffered saline (PBS) to the receiver chamber. The Equilibrium Dialysis Device was allowed to shake for 6 h in a 37 °C incubator. Then, 25 μL solution was sampled from the plasma and PBS chambers, respectively, and they were diluted with either blank PBS or plasma to achieve a 1:1 ratio of plasma: PBS for all samples. The concentrations of the tested compounds in the plasma and PBS chambers were determined by LC–MS/MS. The fraction bound was calculated as ([plasma]—[PBS])/[plasma].

A short description of series [7]: Stability of A4 in LB agar. Type of series: physicochemical. The following applies: 8 μg mL−1 in LB agar, 37 °C, 16 h, UPLC. As for the experimental part: Figure S44. Analysis of the stability of A4 from LB agar. Compound A4 (0.1 mg mL−1)
were diluted in 5 mL of LB agar (1.5% v/v) to 8 μg mL−1, and the LB agar plates were
then incubated at 37 °C for 16 h. The LB agar containing A4 was extracted by DCM (3 ×
10 mL), dried with anhydrous Na2SO4 and concentrated in vacuum. The resulting
extracts were analysed by Ultra-Performance Liquid Chromatography.
(1 picture or pasted object on this page, not shown here)

Series [8] relates to S. aureus ATCC 29213. The series is described as follows: MIC determination (LB agar dilution), S. aureus ATCC 29213. Type of series: cell-based. The following applies: Staphylococcus aureus, ATCC29213, at least two replicates. As for the experimental part:
as §1

The test system of series [9] is MRSA 3. In words: MIC determination (LB agar dilution), clinical MRSA strain 3. The following applies: Staphylococcus aureus, at least two replicates. The series is classed as cell-based. The method, then: as §1
Series [10] is described as follows: Metabolic stability assay in pooled human liver microsomes. The following applies: pH 7.4, 37 °C, NADPH, read-out: Half-Life in Human Hepatic Microsomes. Type of series: in vitro ADME. The method, then:
Each compound was incubated in duplicate with pooled human liver microsomes at 37 °C. The tested compounds were pre-incubated with pooled human liver microsomes in phosphate buffer (pH 7.4) for 5 min in a shaking water bath at 37 °C. The reaction was initiated by adding a NADPH-generating system and incubated for 0, 15, 30, 45, and 60 min. The reaction was stopped by transferring the incubation mixture to CH3CN/MeOH. Samples were then mixed and centrifuged. Supernatants were used for HPLC–MS/MS analysis. Data were calculated as percent parent compounds remaining by assuming zero-minute time point peak area ratio (analyte/IS) as 100% and dividing remaining time point peak area ratios by the zero-minute time point peak area ratio. Data were subjected to fit a first-order decay model to calculate both the slope and half-life.

Details of series [11]: method as in PMID 31244223. The following applies: previously reported ref 14; cited from earlier work.
Details of series [12]: method as in PMID 31244223. The following applies: pooled human liver microsomes; previously reported ref 14; cited from earlier work.
[13] abbreviates: 10 mg/kg intraperitoneal at 1 h and 5 h after infection.
Where [14] appears, read: 2 mg topical twice a day for 7 days.

Converted amounts (≈) assume the structure as drawn. Like-named read-outs stand apart in the source and are kept apart here. Some results are limits rather than exact numbers.

Regarding `CC(C)(C)OC(=O)C=CC1=CC23CC4CC(OC4(C)C2)C3C(C)(CCC(=O)Nc2c(O)ccc(C(=O)O)c2O)C1=O` (stereo not shown) [A4], the MIC in [1], in series [2], in series [5], in series [8] and in series [9] was 1 µg/mL (≈ 1.76 µM) throughout. In addition, the “survival rate of the infected mice” value in series [3] (5 mg/kg intraperitoneal at 1 h and 5 h after infection) worked out at 60%; in series [3] (20 mg/kg intraperitoneal at 1 h and 5 h after infection), 80%; in series [3] (30 mg/kg intraperitoneal at 1 h and 5 h after infection), 60%. The “survival of infected mice” value in [3] (setting [13]) was determined as 60%; in series [3] (50 mg/kg intraperitoneal at 1 h and 5 h after infection), 20%. Besides, the “survival of infected mice after oral administration” value in series [3] (30 and 50 mg/kg by oral gavage) is reported as “most of the treated mice survived within 48 h”. In series [4] (setting [14]), the “reduction of MRSA on the skin compared to untreated mice” value is ~ 790 fold. Besides, the “load of S. aureus on treated skin” value in series [4] (setting [14]) was “(1.0 ± 0.3) × 10^6 CFU/g”. The “healing of the infected skin” value in [4] is given as “showed the healing of the skin”. Further, the “Plasma Protein Binding Bound %” value in [6] is recorded as 98.3%. In [6], the fraction unbound at 6 h, 5 μM stood at 0.017. Moreover, in series [7], the “stability in LB agar” value is given as “relatively stable”. Besides, in [10], the half-life was 26 min.

Turning to `CC(=O)C1=C(C)OC(Cc2ccc(F)cc2)=C2C(=O)C(C)(CCC(=O)Nc3c(O)ccc(C(=O)O)c3O)C3C4CC5CC3(CC5(C)O4)C12` (stereo not shown) [C6], the minimal inhibitory concentration (MIC) in series [1], in [2], in series [5], in series [8] and in [9] was 32 µg/mL (≈ 48.5 µM) each time. Besides, the “Plasma Protein Binding Bound %” value in series [6] stood at 99.6%. Also, the fraction unbound at 6 h, 5 μM in series [6] turned out to be 0.004. For the same compound, the half-life in series [10] was 17 min.

Consider `CC12CC34C=C(C#Cc5cccc(F)c5)C(=O)C(C)(CCC(=O)Nc5c(O)ccc(C(=O)O)c5O)C3C(CC1C4)O2` (stereo not shown) [B8], for which the MIC in series [1], in series [2], in series [5], in series [8] and in series [9] was 1 µg/mL (≈ 1.79 µM) each time. In addition, in series [3] (setting [13]), the “mice died within 24 h” value came to 40%. Moreover, the “Plasma Protein Binding Bound %” value in [6] is recorded as 99.4%. Moreover, in series [6], the fraction unbound at 6 h, 5 μM was found to be 0.006. For the same compound, in series [10], the half-life came out at 96 min.

`CC12CC34C=C(c5ccc6ccc7cccc8ccc5c6c78)C(=O)C(C)(CCC(=O)Nc5c(O)ccc(C(=O)O)c5O)C3C(CC1C4)O2` (stereo not shown) [1b, 6-pyrenyl PTM, reference compound]: in [6], the “Plasma Protein Binding Bound %” value turned out to be 99.9% and the fraction unbound at 6 h, 5 μM was found to be 0.001. In series [10], the half-life is 73 min.

In the case of `CCSC1CC(=O)C(C)(CCC(=O)Nc2c(O)ccc(C(=O)O)c2O)C2C3CC4CC12CC4(C)O3` (stereo not shown) [1a, PTM-2t], in series [11], the “Plasma Protein Binding Bound %” value is recorded as 35% and the “Plasma Protein Binding Free %” value is on record as 65%. Further, the “Half-Life in Human Hepatic Microsomes” value in series [12] was 22 min.

For `CC12CC34C=C(C=CC(=O)N5CCOCC5)C(=O)C(C)(CCC(=O)Nc5c(O)ccc(C(=O)O)c5O)C3C(CC1C4)O2` (stereo not shown) [A10], the MIC in series [1], in [2], in series [5], in [8] and in [9] was 16 µg/mL (≈ 27.6 µM) in each case. In [6], the “Plasma Protein Binding Bound %” value is 77%. The fraction unbound at 6 h, 5 μM in series [6] was determined as 0.23. In [10], the half-life was above 120 min.

With `CCCCCCCCCCCCCCCCCCOC(=O)C=CC1=CC23CC4CC(OC4(C)C2)C3C(C)(CCC(=O)Nc2c(O)ccc(C(=O)O)c2O)C1=O` (stereo not shown) [A5], the minimal inhibitory concentration (MIC) in series [1], in series [2], in series [5], in series [8] and in [9] was above 64 µg/mL throughout. In series [6], the “Plasma Protein Binding Bound %” value was found to be 99.2%. In series [6], the fraction unbound at 6 h, 5 μM is 0.008. For the same compound, the half-life in series [10] is 76 min.

For the compound `CC12C[C@@]34C=CC(=O)[C@@](C)(CCC(=O)Nc5c(O)ccc(C(=O)O)c5O)C3[C@H](CC1C4)O2` (stereo partly shown) [PTM, Platensimycin], the minimal inhibitory concentration (MIC) in [1], in [2], in series [5], in series [8] and in series [9] was 1 µg/mL (≈ 2.27 µM) in each case. Moreover, in series [3] (setting [13]), the “survival of infected mice” value is “died after MRSA infection within 24 h”. In addition, the “Plasma Protein Binding Free %” value in series [11] is 34%. Also, the “Half-Life in Human Hepatic Microsomes” value in series [12] is 51 min.

As for `CC12CC34C=C(I)C(=O)C(C)(CCC(=O)Nc5c(O)ccc(C(=O)O)c5O)C3C(CC1C4)O2` (stereo not shown) [compound 4, 6-iodo PTM], the MIC in series [1], in [2], in [5], in series [8] and in [9] was 1 µg/mL (≈ 1.76 µM) each time. Further, in series [3] (setting [13]), the “mice died within 24 h” value came out at 40%. For the same compound, the “Plasma Protein Binding Bound %” value in series [6] is given as 87%. The fraction unbound at 6 h, 5 μM in [6] is 0.13. In addition, in series [10], the half-life was 58 min.

Turning to `C/C(=C\C(=O)OCCCCCCCCC(=O)O)C[C@@H]1OC[C@H](C[C@@H]2O[C@H]2[C@@H](C)[C@H](C)O)[C@@H](O)[C@H]1O` [mupirocin, reference compound], the “load of S. aureus on treated skin” value in series [4] (setting [14]) is on record as “(6.5 ± 2.4) × 10^5 CFU/g”. Besides, the “healing of the infected skin” value in [4] is reported as “showed the healing of the skin”.

Source of the values: publication PMC9027111, “Morphing Natural Product Platensimycin via Heck, Sonogashira, and One-Pot Sonogashira/Cycloaddition Reactions to Produce Antibiotics with In Vivo Activity” (Antibiotics, 2022).
